Assay results as given in patent publication US20130273057A1, “METHODS AND COMPOSITIONS FOR THE TREATMENT AND DIAGNOSIS OF VASCULAR INFLAMMATORY DISORDERS OR ENDOTHELIAL CELL DISORDERS” (Beth Israel Deaconess Medical Center, Inc., priority 2007, published 2013).

Experiments:
VE-cadherin = VE-cadherin tyrosine phosphorylation (immunoprecipitation/4G10 western blot); type: cell-based, human; details: 10 μM SU5416 pretreatment
Description: (§1) FIGS. 14A-14C show transactivation of VEGFR is critical for tyrosine phosphorylation of VE-cadherin and p120 but not involved in MLC signaling. […] To preserve tyrosine phosphorylation, cells were then treated with 2 mM Na3VO4/2 mM H2O2 for 5 mins prior to lysis (Lampugnani, Corada et al., J. Cell Sci. 110 (Pt 17): 2065-2077, (1997)). A portion of the clarified total lysates was analyzed by western blot using an anti-phospho MLC antibody. The membrane was stripped and reblotted with anti GAPDH antibody. In FIG. 14B VE-cadherin was immunoprecipitated from lysates prepared in FIG. 14A. Tyrosine phosphorylation was detected by 4G10 antibody (FIG. 14B, i). The membrane was stripped and reblotted with an anti VE-cadherin antibody (FIG. 14B, ii). […] 4G10 immunoprecipitates were fractioned by SDS-PAGE, and p120 was detected by western blot. (−): No thrombin; (T): 5 U/ml thrombin. Molecular weights are in kDa.
(§2) (MLC) upon thrombin stimulation, a procedure derived from a published protocol was used (Ukropec et al., J. Biol. Chem. 275: 5983-5986, (2000)). […] Cells were then washed with PBS containing Mg^2+/Ca^2+ (GIBCO 14040-141) supplemented with 1 mM Na3VO4 and 0.2 mM H2O2 at room temperature for 5 mins. […] After SDS-PAGE, phosphorylation of VE-cadherin was detected by western blotting with the antibody 4G10. […]

PDGF receptor = details: relative to VEGFR-2; cited from earlier work
HUVEC monolayer [1] = assay: Permeability assay, FITC-BSA across HUVEC monolayer in Transwell; type: cell-based, human; details: 10 μM SU5416 1 hour, 5 U/ml thrombin 10 mins
Description: FIG. 12 is a graph showing the thrombin induced-endothelial barrier dysfunction requires VEGFR activity. Confluent HUVEC monolayers were established in Transwell inserts. […] After 10 minutes of stimulation, fluorescein-labeled BSA that had diffused to the lower chamber was detected by fluorescence measurement and used as a surrogate marker of endothelial permeability. T: thrombin; SU: SU5416.
Permeability assay: 50,000 HUVECs were seeded in a Transwell insert (Corning 3496) in 100 μl of full EGM2-MV medium. EGM2-MV medium (600 μl) was added to the lower chamber. An endothelial monolayer was allowed to establish overnight. […] The inserts were then immediately transferred to a new well containing 500 μl PBS (with Mg^2+/Ca^2+; GIBCO 14040-141). After 10 mins of incubation, the Transwells were removed, and fluorescence of the PBS in the lower chamber was measured using a CytoFluor Multiwell Plate Reader (Series 4000) with the following settings: excitation λ 485/20 […], emission λ 530/25. Immunostaining: LabTek slide chambers (177429) were precoated with 50 μg/ml rat tail collagen type-1 (BD Biosciences, 354236) at 37° C. for 1 hour according to the manufacturer's protocol. […] Images were recorded using a fluorescence microscope (Nikon Corporation, Tokyo, Japan) and coupled to a Spot RT camera (Diagnostic Instruments Inc, Sterling Heights, Mich.). […]

FGF R = details: cited from earlier work
Tie-1 endodomain = assay: Thrombin-induced receptor tyrosine kinase phosphorylation in HUVECs (4G10 immunoprecipitation/western blot); type: cell-based, human; details: confluent HUVECs pretreated with 10 μM SU5416 for 2 hrs; 5 U/ml thrombin
Excerpt: (§3) (−): No thrombin; (T): 5 U/ml thrombin. Molecular weights are in kDa.

VEGFR2 = assay: as above; type: cell-based, human; details: confluent HUVECs pretreated with 10 μM SU5416 for 2 hrs; 5 U/ml thrombin
Excerpt: as §3

MER = assay: as above; type: cell-based, human; details: confluent HUVECs pretreated with 10 μM SU5416 for 2 hrs; 5 U/ml thrombin
Excerpt: as §3

Tie-2 = assay: as above; type: cell-based, human; details: confluent HUVECs pretreated with 10 μM SU5416 for 2 hrs; 5 U/ml thrombin
Excerpt: as §3

p120 = p120 tyrosine phosphorylation (4G10 immunoprecipitation/western blot); type: cell-based, human; details: 10 μM SU5416 2 hrs
Description: as §1, §2

several xenograph models = details: intra-peritoneal injection twice weekly, 50 mg/kg; cited from earlier work
HUVEC monolayer [2] = assay: Immunostaining of VE-cadherin and actin stress fiber, endothelial gap formation; type: cell-based, human; details: 10 μM SU5416 2 hours
Description: VE-cadherin, actin stress fiber, and nuclei were stained with anti VE-cadherin antibody (green), phalloidin (red), and DAPI (blue), respectively.
EGM2-MV medium (600 μl) was added to the lower chamber. An endothelial monolayer was allowed to establish overnight. […] Each slide chamber was seeded with 200,000 HUVECs in one ml of EGM2-MV medium. An endothelial monolayer was allowed to established overnight. […] After 15 mins of stimulation, cells were fixed with 4% paraformaldehyde in PBS for 15 mins and permeabilized with 0.5% Triton X-100 in PBS for 5 mins. […] After 3 washes with 0.5% FBS/PBS, the samples were mounted in a drop of ProLong Gold antifade reagent with DAPI (Probes, P36931). Images were recorded using a fluorescence microscope (Nikon Corporation, Tokyo, Japan) and coupled to a Spot RT camera (Diagnostic Instruments Inc, Sterling Heights, Mich.). Western blotting: To examine the phosphorylation status of VE-Cadherin and myosin light chain

myosin light chain (MLC) = assay: Western blot of MLC phosphorylation upon thrombin stimulation; type: cell-based, human; details: 10 μM SU5416 pretreatment; thrombin 5 minutes; serine 19
Description: as §1, §2

[3] = system: PAR-1 induced vascular leak in mice; assay: PAR-1 induced vascular leak in mouse ears (Evan blue); type: in vivo; details: ear pretreated with 10 μl of 10 μM SU5416 for one hour; PAR-1 activating peptide and Evan blue by tail vein; about 15 minutes
Description: Then 20 μl of 5 mM PAR-1 activating peptide and 500 μl 0.1% Evan blue was injected into the mouse by tail vein injection. About 15 minutes later the extent of vascular leaks in the ears was documented by photography.

VEGFR-2 = VEGFR-2 (Homo sapiens, UniProt P35968); details: cited from earlier work
VEGFR-2, sequence (P35968 20-1356, species assumed): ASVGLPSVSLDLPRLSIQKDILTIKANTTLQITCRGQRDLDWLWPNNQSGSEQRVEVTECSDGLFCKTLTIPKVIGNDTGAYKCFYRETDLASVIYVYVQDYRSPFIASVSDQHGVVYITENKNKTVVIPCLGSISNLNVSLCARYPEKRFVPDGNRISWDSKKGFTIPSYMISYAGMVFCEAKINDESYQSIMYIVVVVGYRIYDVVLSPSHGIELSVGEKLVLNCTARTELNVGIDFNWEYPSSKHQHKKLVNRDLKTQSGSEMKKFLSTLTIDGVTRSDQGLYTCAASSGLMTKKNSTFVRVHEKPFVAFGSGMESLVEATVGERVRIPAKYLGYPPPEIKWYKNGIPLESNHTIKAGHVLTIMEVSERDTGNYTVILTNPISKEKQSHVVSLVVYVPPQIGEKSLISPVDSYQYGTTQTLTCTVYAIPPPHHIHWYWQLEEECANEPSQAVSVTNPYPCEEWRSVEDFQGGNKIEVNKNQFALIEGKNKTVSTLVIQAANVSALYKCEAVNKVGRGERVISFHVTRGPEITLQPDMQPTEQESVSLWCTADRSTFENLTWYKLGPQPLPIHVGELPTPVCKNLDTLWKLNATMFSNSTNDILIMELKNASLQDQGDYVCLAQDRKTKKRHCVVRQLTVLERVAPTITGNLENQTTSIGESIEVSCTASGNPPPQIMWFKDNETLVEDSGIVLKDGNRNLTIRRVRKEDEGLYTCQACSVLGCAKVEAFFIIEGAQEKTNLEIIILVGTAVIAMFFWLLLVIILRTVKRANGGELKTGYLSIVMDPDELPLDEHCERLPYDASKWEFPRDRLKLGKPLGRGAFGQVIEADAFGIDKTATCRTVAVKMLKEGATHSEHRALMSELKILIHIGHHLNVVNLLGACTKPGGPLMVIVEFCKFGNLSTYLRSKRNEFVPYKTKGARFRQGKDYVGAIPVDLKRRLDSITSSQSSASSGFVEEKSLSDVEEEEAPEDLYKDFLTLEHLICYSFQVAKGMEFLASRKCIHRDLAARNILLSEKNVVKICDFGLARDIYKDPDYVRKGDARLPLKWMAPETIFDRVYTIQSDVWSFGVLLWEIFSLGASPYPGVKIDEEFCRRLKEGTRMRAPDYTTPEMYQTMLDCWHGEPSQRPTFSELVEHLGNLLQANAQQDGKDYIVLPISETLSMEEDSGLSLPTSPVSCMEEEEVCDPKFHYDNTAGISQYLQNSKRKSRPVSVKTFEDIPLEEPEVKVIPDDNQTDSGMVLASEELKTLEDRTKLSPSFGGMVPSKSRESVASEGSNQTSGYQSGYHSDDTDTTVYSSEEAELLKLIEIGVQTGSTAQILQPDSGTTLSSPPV

[4] = thrombin or PAR-1 AP 30 μM, 15 mins

Structure (SMILES): Cc1cc(C)c(/C=C2\C(=O)Nc3ccccc32)[nH]1 [SU5416]
- thrombin-induced tyrosine phosphorylation of VE-cadherin (VE-cadherin): significantly blocked
- inhibition of PDGF receptor in cell based assays, times less effective (PDGF receptor): 20 times
- thrombin-induced increase in endothelial permeability (HUVEC monolayer [1]): completely blocked
- inhibition of FGF R (FGF R): poor inhibitor
- thrombin-induced phosphorylation of Tie-1 endodomain (Tie-1 endodomain): partially blocked
- phosphorylation of VEGFR2 induced by thrombin (VEGFR2): significantly attenuated
- activation of MER by thrombin stimulation (MER): completely blocked
- thrombin-induced phosphorylation of Tie-2 (Tie-2): partially blocked
- thrombin-induced tyrosine phosphorylation of p120 (p120): significantly blocked
- tumor progression in xenograph models (several xenograph models): effectively blocks
- stress fiber formation induced by thrombin (HUVEC monolayer [2]; thrombin 15 mins): did not block
- VE-cadherin disruption induced by thrombin or PAR-1 AP (HUVEC monolayer [2]; [4]): completely blocked
- intercellular gap formation induced by thrombin or PAR-1 AP (HUVEC monolayer [2]; [4]): no intercellular gaps formed
- serine phosphorylation of MLC induced by thrombin (myosin light chain (MLC)): did not affect
- PAR-1 induced vascular leak in mice [3]: inhibited
- blocking VEGFR-2 function in cells (VEGFR-2): most effective
